Source: patent publication US10092523B2, “Long acting pharmaceutical compositions” (priority 2014, dated 2018)
In brackets after ≈: the same amount, converted by molar mass.

Columns and labels:
HIV [1] = assay: human protein adjusted IC90; assay type: cell-based; details: Human immunodeficiency virus 1; reference line in FIG. 1 and FIG. 2
HIV [2] = details: cited from earlier work

| IC90 (HIV [1]) [ng/mL] | Structure (SMILES) | reduced HIV viral load by a mean of (HIV [2]; patients with trough levels >=20 μg/mL and without key baseline Gag polymorphisms at Q369, V370 or T371) [log10/mL] | HIV viral load reduction versus patients without Gag polymorphisms (HIV [2]; users with Gag polymorphisms at Q369, V370 or T371) |
| --- | --- | --- | --- |
| 4.31 (≈ 5.32 nM) | CC(C)C1=C2[C@H]3CC[C@@H]4[C@@]5(C)CC[C@H](OC(=O)CC(C)(C)C(=O)O)C(C)(C)[C@@H]5CC[C@@]4(C)[C@]3(C)CC[C@@]2([C@@H](O)CN(CCN(C)C)Cc2ccc(Cl)cc2)CC1=O [first compound, 4-(((3aR,5aR,5bR,7aR,9S,11aR,11bR,13aS)-3a-((R)-2-((4-Chlorobenzyl)(2-(dimethylamino)ethyl)amino)-1-hydroxyethyl)-1-isopropyl-5a,5b,8,8,11a-pentamethyl-2-oxo-3,3a,4,5,5a,5b, 6,7,7a,8,9,10,11,11a,11b,12,13,13a-octadecahydro-2H-cyclopenta[a]chrysen-9-yl)oxy)-2,2-dimethyl-4-oxobutanoic acid] |  |  |
|  | C=C(C)[C@@H]1CC[C@]2(C(=O)O)CC[C@]3(C)[C@H](CC[C@@H]4[C@@]5(C)CC[C@H](OC(=O)CC(C)(C)C(=O)O)C(C)(C)[C@@H]5CC[C@]43C)[C@@H]12 [Bevirimat] | 1.3 | significantly lower load reductions |
